Data set [1] in a line: Trypanosoma cruzi growth suppression in host cells – NIH3T3 host cells, beta-gal luminescence, confirmation (AID 2044).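 Also: intracellular parasites grown in NIH/3T3 mouse fibroblasts as host cells; luminescent beta-galactosidase reporter signal from transgenic T. cruzi replicating inside host cells; inhibitors lower the luminescence signal.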 Format: functional, cell-based.
Data set [2] in a line: NIH3T3 cell viability loss – ATP luminescence, mouse fibroblasts, counter-screen, dose response (AID 2010).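 Also: cells exposed to compound for about 90 hours before reading.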 Format: functional, cell-based. Background: The purpose of a counterscreen is to sort out artefacts and off-target activity.
Data set [3] concerns Streptococcus sp. 'group A'. As to the kind of experiment: Streptococcus pyogenes SK(-)GAS viability under kanamycin – luminescence, BacTiterGlo, confirmation, counter-screen for streptokinase expression inhibitor project, dose response (AID 1900). Format: functional, organism-based.
Data set [4] relates to Streptococcus. As to the kind of experiment: GAS UMAA2166 growth inhibition – luminescence, BacTiterGlo, counter-screen for streptokinase expression inhibitor project, dose response (AID 1915).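 Also: potency for reduction of bacterial viability or growth.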 Format: functional, organism-based.
The nature of data set [5]: viability of uninfected HEp-2 cells – cell-based, HTS, cytotoxicity control for RSV inhibitor project, dose response (AID 2410). Particulars: human respiratory syncytial virus. Format: functional.
Data set [6] deals with Luciferin 4-monooxygenase (Photinus pyralis, UniProt P08659). As to the kind of experiment: inhibition of purified Photinus pyralis luciferase – biochemical, luminescence, dose response (AID 1891).
The nature of data set [7]: Luminescence Cell-Based Dose Confirmation HTS to Identify Inhibitors of Platelet Dense Granule Release. [Related pubchem assays: 1663 (Primary HTS), 1678 (Summary of Project)]. Format: functional.
Data set [8] concerns the target Cytochrome P450 2C19 (Homo sapiens, UniProt P33261). As to the kind of experiment: Cytochrome panel assay with activity outcomes. Panel member name: p450-cyp2c19 Compounds with AC50 equal or less than 10 uM are considered active. It counts as functional.
The target in data set [9] is Cytochrome P450 2D6 (Homo sapiens, UniProt P10635).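 Also: CYP2D6 member of a cytochrome P450 panel assay.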
The target in data set [10] is T1, Corticotropin-releasing factor receptor 2/Corticotropin-releasing factor-binding protein (Homo sapiens, UniProt P24387+Q13324).
T1 sequence (Q13324 whole entry): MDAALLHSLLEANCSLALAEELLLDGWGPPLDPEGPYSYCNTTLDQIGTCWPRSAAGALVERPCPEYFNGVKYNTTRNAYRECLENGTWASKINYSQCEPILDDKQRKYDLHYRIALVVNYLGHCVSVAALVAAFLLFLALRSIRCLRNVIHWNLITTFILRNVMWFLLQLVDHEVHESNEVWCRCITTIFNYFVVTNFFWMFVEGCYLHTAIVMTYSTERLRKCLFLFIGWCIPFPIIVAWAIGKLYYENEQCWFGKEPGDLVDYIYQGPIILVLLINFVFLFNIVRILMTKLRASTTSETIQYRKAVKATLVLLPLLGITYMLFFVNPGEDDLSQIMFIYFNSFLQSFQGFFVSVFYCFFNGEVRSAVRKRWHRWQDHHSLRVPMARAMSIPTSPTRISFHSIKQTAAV
T1 sequence (P24387 whole entry): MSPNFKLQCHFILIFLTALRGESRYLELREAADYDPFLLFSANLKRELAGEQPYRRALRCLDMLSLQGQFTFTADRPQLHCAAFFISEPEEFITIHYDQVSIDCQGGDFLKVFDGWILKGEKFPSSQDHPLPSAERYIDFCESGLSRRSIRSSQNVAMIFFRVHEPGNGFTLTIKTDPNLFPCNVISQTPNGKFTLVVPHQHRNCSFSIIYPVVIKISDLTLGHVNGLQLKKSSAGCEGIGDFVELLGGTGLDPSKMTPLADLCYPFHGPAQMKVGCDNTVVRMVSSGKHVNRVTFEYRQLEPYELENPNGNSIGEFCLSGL
The data set is described as follows: activators of CRF receptor 2 with binding protein – uHTS hits, confirmation (AID 602473). Particulars: read-out: EC50_Mean. It counts as functional.

Active and inactive are the calls of the source. Where only a bound is given, the exact number is not on record here.

Chain of Luciferin 4-monooxygenase (P08659 whole entry): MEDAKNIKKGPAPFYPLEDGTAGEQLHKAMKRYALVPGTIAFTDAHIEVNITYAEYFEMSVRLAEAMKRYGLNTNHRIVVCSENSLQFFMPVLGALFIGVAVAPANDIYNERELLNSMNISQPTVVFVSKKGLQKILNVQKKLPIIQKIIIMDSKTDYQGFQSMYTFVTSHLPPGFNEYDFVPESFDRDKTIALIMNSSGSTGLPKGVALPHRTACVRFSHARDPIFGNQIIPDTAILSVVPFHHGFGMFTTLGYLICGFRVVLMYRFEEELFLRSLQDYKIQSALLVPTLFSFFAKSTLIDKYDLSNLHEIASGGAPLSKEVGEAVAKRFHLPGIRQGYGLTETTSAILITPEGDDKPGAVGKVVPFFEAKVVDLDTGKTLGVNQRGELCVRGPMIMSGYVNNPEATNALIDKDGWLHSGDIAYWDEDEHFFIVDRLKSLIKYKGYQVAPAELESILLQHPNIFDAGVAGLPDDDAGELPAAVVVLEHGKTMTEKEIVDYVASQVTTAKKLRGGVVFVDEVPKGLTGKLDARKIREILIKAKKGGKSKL
Chain of Cytochrome P450 2C19 (P33261 whole entry): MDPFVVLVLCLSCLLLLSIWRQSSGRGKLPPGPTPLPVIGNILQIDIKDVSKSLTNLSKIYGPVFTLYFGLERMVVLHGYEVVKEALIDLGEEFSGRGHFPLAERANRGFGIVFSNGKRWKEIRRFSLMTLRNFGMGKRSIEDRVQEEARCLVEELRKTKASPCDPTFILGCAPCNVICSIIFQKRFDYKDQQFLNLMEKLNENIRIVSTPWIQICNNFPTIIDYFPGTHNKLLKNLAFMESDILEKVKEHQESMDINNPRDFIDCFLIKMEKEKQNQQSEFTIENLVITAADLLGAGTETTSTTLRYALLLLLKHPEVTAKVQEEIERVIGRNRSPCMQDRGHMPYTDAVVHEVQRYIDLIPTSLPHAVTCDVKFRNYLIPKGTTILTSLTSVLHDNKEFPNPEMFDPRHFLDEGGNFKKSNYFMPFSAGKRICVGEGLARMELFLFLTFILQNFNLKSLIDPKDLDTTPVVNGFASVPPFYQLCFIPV
Chain of Cytochrome P450 2D6 (P10635 whole entry): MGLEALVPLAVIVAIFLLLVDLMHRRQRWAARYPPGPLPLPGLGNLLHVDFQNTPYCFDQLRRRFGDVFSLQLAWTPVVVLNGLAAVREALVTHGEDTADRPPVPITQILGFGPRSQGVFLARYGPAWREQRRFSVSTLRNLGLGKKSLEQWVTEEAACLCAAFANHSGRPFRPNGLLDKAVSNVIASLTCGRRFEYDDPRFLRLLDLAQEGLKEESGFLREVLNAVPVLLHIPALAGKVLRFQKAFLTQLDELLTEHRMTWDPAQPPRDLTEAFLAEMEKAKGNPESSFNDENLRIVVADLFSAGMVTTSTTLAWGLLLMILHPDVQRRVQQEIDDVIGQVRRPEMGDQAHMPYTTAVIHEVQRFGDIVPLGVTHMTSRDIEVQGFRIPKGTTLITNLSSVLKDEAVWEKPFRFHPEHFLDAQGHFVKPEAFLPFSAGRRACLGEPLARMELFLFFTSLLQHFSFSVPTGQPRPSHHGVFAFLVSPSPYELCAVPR

Regarding `COc1ccc(-n2nc3c(N4CCC(C(=O)N5CCCCCC5)CC4)nnc(C)c3c2C)cc1`, the EC50 in data set [1] was 0.858 µM (active); in data set [2] it was > 60 µM (not active).

Consider `CC(=O)c1sc(N/N=C\c2c(O)ccc3ccccc23)nc1C`, for which the EC50 was 4.07 µM (active) in data set [3] and 7.49 µM (active) in [4].

For the molecule `COC(=O)c1c(NC(=O)CN2C(=O)NC3(CCC(C(C)(C)C)CC3)C2=O)sc2c1CCCCC2` (stereo not drawn), the EC50 in [1] is 3.11 µM (active); in data set [2] it was > 60 µM (not active).

With `Cc1nc2c(C(=O)NCc3ccco3)cnn2c(C)c1Cc1ccc(F)cc1Cl`, the EC50 in [1] is 2.17 µM (active); in [2] it was > 30 µM (not active).

The term CC50 denotes the concentration that lowers cell viability or growth by half. `COc1ccc(-c2noc(CCCC(=O)NCC3CCCO3)n2)cc1` (stereo not drawn): the CC50 in [5] is 30.3 µM (active).

With `CN(C)CCOC(=O)C1(c2ccccc2)CCCC1`, the EC50 in [6] and in data set [7] was > 112 µM (not active) each time.

Take `CN(C)c1ccc(/C=N/N=C(N)N)cc1[N+](=O)[O-]`: the EC50 in [1] was 0.144 µM (active); in data set [2], > 60 µM (not active).

As to `COC(=O)c1c(NC(=O)C2CC(=O)NN2Cc2ccccc2)sc(C)c1C` (stereo not drawn), the EC50 in data set [6] and in [7] was > 112 µM (not active) in each case.

A word on the AC50: it is the concentration at which the activity in the assay is half-maximal. With `COC(=O)[C@@]1(Cc2ccc(OC)cc2)[C@H]2c3cc(C(=O)N(C)C)n(C)c3C[C@H]2CN1C(=O)c1ccccc1`, in [8] (read-out: AC50), the AC50 was 25.1 µM (inconclusive).

Turning to `CCc1ccc(C(C(=O)NCc2ccc(OC)cc2)N(CCOC)C(=O)Cc2cccs2)cc1` (stereo not drawn), the AC50 in data set [9] is 25.1 µM (inconclusive).

For the molecule `Cc1ccc(-c2nc(SC(C)C(=O)N3CCOCC3)n[nH]2)cc1` (stereo not drawn), the EC50 in [6] and in data set [7] was > 112 µM (not active) in each case.

For `Cc1nn(C)cc1CNC(=O)C1CCC(=O)N(CC2CCCCC2)C1` (stereo not drawn), the EC50 in data set [6] and in data set [7] was > 112 µM (not active) in each case.

For the molecule `Cc1ccc(NC(=O)C(=O)NCc2ccc(/C=C(/C#N)C(=O)NCc3cccnc3)o2)cc1`, in data set [8] (read-out: AC50), the AC50 is 7.08 µM (inconclusive).

On to `Nc1nn(S(=O)(=O)c2ccccc2)cc1-c1cccc([N+](=O)[O-])c1`, for which the EC50 was 1.83 µM (active) in [1] and > 60 µM (not active) in [2].

Regarding `N#Cc1c(-c2ccc3c(c2)OCO3)ccn2nc(-c3cccc(C(F)(F)F)c3)nc12`, the AC50 in data set [9] is 3.16 µM (inconclusive).

For the molecule `Cc1nn(C)c(Cl)c1CN1CCCC(CCC(=O)NCc2ccccc2F)C1` (stereo not drawn), the EC50 was 0.181 µM (active) in data set [1] and > 30 µM (not active) in data set [2].

Take `NC(=S)N/N=C/c1ccc(-c2cc(Cl)cc(Cl)c2)o1`: the figures for the EC50 in [1] and in [2] were 2.67 µM (active) and > 60 µM (not active), respectively.

Regarding `Nc1cccc2c1Cc1cc([N+](=O)[O-])ccc1-2`, the EC50 in [10] was > 53 µM (inactive).

`CCN(CC)S(=O)(=O)c1ccc(NN=C2CCN(C)CC2)c([N+](=O)[O-])c1`: the EC50 was 0.482 µM (active) in [1] and > 60 µM (not active) in data set [2].

On to `COC(=O)Cn1c(=N)n(CCN2CCCCC2)c2ccccc21`, for which the AC50 in data set [9] is 44.7 µM (inconclusive).

As to `Fc1ccc(/C=N/Nc2nccnc2Cl)cc1`, the EC50 in data set [6] was 8.1 µM (active); in data set [7] it was 1.65 µM (active).

`CCOCCCN1C(=O)CN(C2CCC(C)CC2)C(=O)C1c1ccc(C)cc1` (stereo not drawn): the EC50 in data set [6] and in data set [7] was > 112 µM (not active) in each case.

For `O=C(O)CC1(CC(=O)O)Nc2ccccc2SC1=O`, the AC50 result in [8] is reported as “inconclusive”.

For `CCOc1ccc(C(=O)O/N=C(\N)c2ccccn2)cc1OCC`, the EC50 in data set [6] and in data set [7] was > 112 µM (not active) throughout.

With `COc1ccc(Cl)cc1Nc1nc(-c2sc(NC(=O)c3ccco3)nc2C)cs1`, the CC50 in [5] is 35.4 µM (active).

For `COc1cc(O)oc1/C=N/c1ccc(Cl)cc1`, the AC50 in data set [9] is 14.1 µM (inconclusive).

As to `CCOc1ccccc1C1c2[nH]c3ccccc3c2C[C@H]2C(=O)N(C3CCN(Cc4ccccc4)CC3)CC(=O)N12` (stereo partly drawn), the EC50 in data set [1] is 2.15 µM (active); in [2] it was > 60 µM (not active).

Take `COc1cc(C)c(C)cc1S(=O)(=O)N1CCCc2ccccc21`: the EC50 in data set [10] is 5.44 µM (active).

Regarding `CCOC(=O)c1c(NC(=O)CN2C(=O)NC3(CCCCC3C)C2=O)sc(C)c1CC` (stereo not drawn), the EC50 in [1] is 2.37 µM (active); in [2], > 60 µM (not active).

Turning to `COc1cc(OC)c(OC)cc1/C=C1/Cc2ccccc2C1=O`, the EC50 in data set [10] was 5.48 µM (active).

Consider `COc1cccc(/C=N/NC(=O)C(=O)N/N=C/c2cccc(OC)c2OC)c1OC`, for which the EC50 in [6] and in [7] was > 112 µM (not active) in each case.

`Cc1cccc(OCC(=O)NNC(=O)CSc2ncc(C#N)c(N)n2)c1`: the AC50 in [8] (read-out: AC50) was 15.8 µM (inconclusive); in data set [9], 4.47 µM (inconclusive).

`COc1cccc(-c2cc(C(=O)Nc3ccc(N(C)C(C)=O)cc3)c3cc(Br)ccc3n2)c1`: the EC50 was 1.83 µM (active) in data set [1] and > 60 µM (not active) in data set [2].

Regarding `O=C(c1ccc(Cl)cc1)C1CCCN(Cc2cnn(-c3ccccc3)c2)C1` (stereo not drawn), the EC50 in [1] was 0.503 µM (active); in data set [2], > 60 µM (inconclusive).

Turning to `Sc1ncnc2c1sc1nc(N3CCOCC3)c3c(c12)CCCC3`, in data set [5], the CC50 is > 50 µM (active).

`Cc1cc2cc3c(cc2nc1SCC(=O)Nc1c(C)cccc1C)CCC3`: the AC50 in data set [9] is 14.1 µM (inconclusive).

Consider `COc1ccc(N(CC(=O)NCCC2=CCCCC2)S(=O)(=O)c2ccccc2)cc1OC`, for which the EC50 in data set [1] is 3.35 µM (active); in [2] it was > 60 µM (not active).

For `CCOC(=O)/C=c1/s/c(=C/c2ccc3cc(OC)ccc3c2)c(=O)n1CC(=O)NCc1ccc2c(c1)OCO2`, the EC50 in [10] is 4.9 µM (active).

As to `c1ccc2c(N3CCCCCC3)nc(-c3ccncc3)nc2c1`, in [5], the CC50 was 15.9 µM (active).

In the case of `C[C@@H]1CN(CCCn2c3ccccc3c3ccccc32)C[C@H](C)N1` [RIMCAZOLE], the AC50 in [9] is 15.8 µM (inconclusive).

Consider `CC(=O)OCCN1C(=O)c2cccc3cc([N+](=O)[O-])cc(c23)C1=O`, for which the EC50 is 0.358 µM (active) in data set [1] and > 30 µM (not active) in [2].

Regarding `CC1CCCCN1S(=O)(=O)c1ccc(S(=O)(=O)N(Cc2ccccc2)Cc2ccco2)cc1` (stereo not drawn), the values for the EC50 in data set [1] and in data set [2] were 1.09 µM (active) and > 60 µM (not active), respectively.

For the molecule `Cc1ccc(C)c(OCC(O)CN2CCc3ccccc3C2)c1C` (stereo not drawn), in data set [5], the CC50 was 46.3 µM (active).

As for `O=C(Nc1cccc(F)c1)N1CCC2(CCNCC2)CC1`, the AC50 in [8] (read-out: AC50) was 20 µM (inconclusive); in data set [9], 12.6 µM (inconclusive).

In the case of `O=C1OCCC=C1[C@@H](O)CCc1ccccc1`, in data set [8] (read-out: AC50), the AC50 was 0.316 µM (inconclusive).

As for `c1ccc(-c2cc3c(N4CCCC4)ncnc3s2)cc1`, the CC50 in data set [5] was > 50 µM (active).

Consider `CSc1scc2c1-c1nc(SCC(=O)C(C)(C)C)ncc1CC2`, for which the CC50 in [5] is 20.6 µM (active).

For `CCc1ccc2nc(O)c(CN(Cc3ccccc3)C(=O)Nc3ccccc3OC)cc2c1`, the EC50 in [1] is 1.93 µM (active); in data set [2] it was > 60 µM (not active).

On to `CNc1ccc(Oc2nc([N+](=O)[O-])nn2C)cc1`, for which the EC50 in data set [1] is 1.43 µM (active); in data set [2] it was > 60 µM (not active).

Consider `COc1cc(N2CCOCC2)ncn1`, for which the AC50 in [8] (read-out: AC50) is 0.00562 µM (inconclusive).

For the molecule `Cc1c(/C=N/NC(=O)C(NC(=O)c2ccc3c(c2)OCO3)C(C)C)c2ccccc2n1C` (stereo not drawn), the EC50 in [10] was 1.24 µM (active).

Take `O=C(CCCc1ccccn1)c1ccccc1`: the AC50 in data set [8] (read-out: AC50) was 2.51 µM (inconclusive).

For the molecule `Cn1c(=O)c2c(SCC(=O)N3CCCc4ccccc43)nc(CC(C)(C)C)nc2n(C)c1=O`, the CC50 in data set [5] was > 50 µM (active).

For `O=C(Nc1ncc(Cc2ccc(Cl)cc2Cl)s1)c1ccc([N+](=O)[O-])cc1`, in [10], the EC50 was > 53 µM (inactive).

Regarding `O=C(c1cccc(F)c1)N1CCC2(CCCN(Cc3ccccc3)C2)CC1`, the AC50 in data set [9] is 10 µM (inconclusive).

Values taken from ChEMBL document CHEMBL1201862, “PubChem BioAssay data set” (2004).
